One test has as its target T1, Human KIF18A (1-376aa) (Homo sapiens, UniProt Q8NI77).
T1 construct: Human KIF18A (1-376aa) protease used in the experiments; purchased Shanghai Panchao Biotechnology Co., Ltd
T1 sequence (Q8NI77 1-376): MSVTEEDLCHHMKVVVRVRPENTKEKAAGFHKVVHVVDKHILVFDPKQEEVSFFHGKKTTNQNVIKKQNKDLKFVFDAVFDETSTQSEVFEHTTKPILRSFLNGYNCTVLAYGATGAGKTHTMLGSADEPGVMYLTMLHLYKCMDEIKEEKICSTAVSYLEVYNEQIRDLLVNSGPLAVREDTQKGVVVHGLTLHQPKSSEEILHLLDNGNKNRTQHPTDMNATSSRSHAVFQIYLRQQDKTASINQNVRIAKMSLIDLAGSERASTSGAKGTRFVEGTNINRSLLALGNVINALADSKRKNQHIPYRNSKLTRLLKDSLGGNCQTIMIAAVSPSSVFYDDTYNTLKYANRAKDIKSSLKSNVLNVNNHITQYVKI
Nature of the test: KIF18A enzyme activity assay (ADP-Glo). The format is biochemical. Particulars: microtubule 50 μg/mL, ATP (Km 70 μM), room temperature, 15 min, read-out: KIF18A inhibitory activity IC50. (ADP-Glo turns the ADP formed in a reaction into a luminescent signal.)

The next test has as its system OVCAR3 cells. The test can be described thus: Inhibition of proliferation of OVCAR-3 cells (Cell-Titer Glo). Type of test: cell-based. The settings on record: Homo sapiens, OVCAR-3, 72 h, 3 days, 1000 cells/well. An excerpt: Test Example 2. Test on Inhibition of Proliferation of OVCAR-3 Cells by Compounds of Present Disclosure
Cell and material: The human ovarian cancer cell line OVCAR3 was purchased from ATCC (Cat. No. HTB-161™), RPMI 1640 medium (Gibco #A1049101), penicillin-streptomycin (Gibco #15140122), and 0.25% Trypsin-EDTA (Gibco #25200056) were purchased from Gibco (U.S.), bovine insulin (Yeasen #40107ES60) was purchased from Yeasen, 384-well plates (Corning #CLS3765) was purchased from Corning (U.S.), and Cell-Titer Glo reagent (Promega #G7568) was purchased from Promega (U.S.).
Cell culture: OVCAR3 cells were cultured in RPMI 1640 complete medium (RPMI 1640 medium containing 20% fetal bovine serum, […] bovine insulin, and 1% penicillin-streptomycin) in an incubator (37 °C, 5% CO2), and the cells could be used in experiments when in the logarithmic growth phase.
Cell proliferation activity test: The Cell-Titer Glo reagent was used to test the compound for inhibition of proliferation of the OVCAR3 cell strain. The compound formulated with DMSO and pure DMSO (control) were each added to a 384-well plate using an Echo instrument; the compound was subjected to 3-fold serial dilution starting from 30 μM to obtain 11 concentration points, and the volume of the compound or DMSO added was 100 nL.
OVCAR3 cells were digested and resuspended in RPMI 1640 complete medium, and the suspension was added to a 384-well plate (1000 cells/50 μL/well) to be well mixed with the compound. The mixture was incubated in an incubator (37 °C, 5% CO2) for 3 days. The Cell-Titer Glo reagent was added at 25 µL/well, and the resulting mixture was well mixed by shaking and then incubated for 10 min. The Cell-Titer Glo readings were measured with a Multimode Plate Reader (brand: PerkinElmer; model: SIC-PV-018).
A negative control group (Bottom) was set, and the negative control group was medium wells with 0.2% DMSO added and was defined as 100% proliferation inhibition; the positive control group (Top) was OVCAR3 cell wells with 0.2% DMSO added.
The percent proliferation inhibition (% Inhibition) was calculated, and the curves were fit using the four-parameter equation, Y=Bottom+(Top−Bottom)/(1+(IC50/X)^HillSlope), to obtain the proliferation inhibition IC50 of the compound. • Percent inhibition: % Inhibition=(1−(Signal−Bottom)/(Top−Bottom))×100%. • Signal: Cell-Titer Glo reading of wells with compound added; • Bottom: Cell-Titer Glo reading of negative control wells; • Top: Cell-Titer Glo reading of positive control wells.

One may read the IC50 as the concentration that inhibits the measured activity by half. In the case of `O=C(Nc1cccc2c1nc1n2CC(C(F)(F)F)C1)c1ccc(NS(=O)(=O)CCO)cc1N1CCC2(CC1)CC2` (stereo not drawn) [Compound 76], the values for the IC50 at Human KIF18A (1-376aa) and in the test with OVCAR3 cells were < 200 nM and 43.1 nM, respectively.
As to `CC1(C)Cn2c(nc3c(NC(=O)c4ccc(NS(=O)(=O)CCO)cc4N4CCC5(CC4)CC5)cccc32)CO1` [Compound 87], the IC50 is < 200 nM on Human KIF18A (1-376aa) and 31 nM with OVCAR3 cells.
Taken in the same sequence, the figures for `O=C(Nc1cccc2c1nc1n2CC2C1C2(F)F)c1ccc(NS(=O)(=O)CCO)cc1N1CCC2(CC1)CC2` (stereo not drawn) [Compound 86] were < 200 nM and 6.5 nM.
Taken in the same sequence, the figures for `O=C(Nc1cccc2c3c(nn12)C1CC1C3)c1ccc(NS(=O)(=O)CCO)cc1N1CCC2(CC1)CC2` (stereo not drawn) [Compound 107] were < 200 nM and 99.3 nM.
Taken in the same sequence, the figures for `O=C(Nc1cccc2c1nc1n2C2CCC1C2)c1ccc(NS(=O)(=O)CCO)cc1N1CCC2(CC1)CC2` (stereo not drawn) [Compound 72] were < 200 nM and 57.3 nM.
Regarding `O=C(Nc1cccc2c1nc1n2CCC(F)(F)CC1)c1ccc(NS(=O)(=O)CCO)cc1N1CCC2(CC1)CC2` [Compound 49], the IC50 at Human KIF18A (1-376aa) is < 200 nM; in the test with OVCAR3 cells, 49.6 nM.
Taken in the same sequence, the figures for `O=C(Nc1cc2c(c(N3CCC(F)(F)CC3)c1)CCC2)c1ccc(NS(=O)(=O)CCO)cc1N1CCC2(CC1)CC2` [Compound 41] were < 200 nM and 16.8 nM.
Taken in the same sequence, the figures for `O=C(Nc1cc2c(c(N3CCC(F)(F)CC3)n1)COC2)c1ccc(NS(=O)(=O)CCO)cc1N1CCC2(CC1)CC2` [Compound 67] were < 200 nM and 70 nM.
Taken in the same sequence, the figures for `CCS(=O)(=O)Nc1ccc(C(=O)Nc2cc3c(c(N4CCC(F)(F)CC4)c2)CCC3)c(N2CCC3(CC2)CC3)c1` [Compound 73] were < 200 nM and 38 nM.
Turning to `O=C(Nc1cccc2c1nc1n2CCCCC1)c1ccc(NS(=O)(=O)CCO)cc1N1CCC2(CC1)CC2` [Compound 24], the IC50 on Human KIF18A (1-376aa) is < 200 nM; in the test with OVCAR3 cells, 52 nM.
Taken in the same sequence, the figures for `CS(=O)(=O)Nc1ccc(C(=O)Nc2cn3ccnc3c(N3CCC(F)(F)CC3)n2)c(N2CCC3(CC2)CC3)c1` [Compound 105] were < 200 nM and 14.9 nM.
Taken in the same sequence, the figures for `O=C(Nc1cccc2c1nc1n2CC2CC1O2)c1ccc(NS(=O)(=O)CCO)cc1N1CCC2(CC1)CC2` (stereo not drawn) [Compound 59] were < 200 nM and 23.3 nM.

Values taken from patent US20260364057A1, “AMIDE COMPOUND, AND COMPOSITION AND USE THEREOF” (SIMCERE ZAIMING PHARMACEUTICAL CO., LTD., priority 2022, published 2026).
